From patent publication US20240025891A1 (Celgene Corporation, priority 2020, published 2024)

Test system: Onchocerca gutturosa adult male worms
Test: Onchocerciasis in vitro screening model Onchocerca gutturosa (worm motility score and MTT/formazan colorimetry)
Conditions: Onchocerca gutturosa, read-out: O. gutt Act class
Method: Onchocerciasis: In Vitro Screening Model Onchocerca gutturosa
Parasite and cell cultures. Onchocerca gutturosa adult male worms were obtained by dissection from the nuchal ligament connective tissues of naturally infected cattle, from Gambia, W Africa.
The worms were maintained for at least 24 h in culture before use in Eagles Minimum Essential Medium with Earl's Salts (Gibco, UK)+10% heat inactivated new born calf serum (Gibco, UK)+antibiotic cover of 200 units/ml penicillin, 200 μg/ml streptomycin and 0.5 μg/ml amphotericin B (Sigma, UK). Only normally active specimens were used in the test. All cultures and assays were conducted at 37° C. under an atmosphere of 5% CO2 in air.
Drug sensitivity assays. Compound stock solutions were prepared in 100% DMSO unless otherwise indicated and diluted into the medium. Any unused compound stocks were stored at −20° C. Assays were performed in sterile 24-well (2 ml) plates (Falcon, UK).
Worms were then transferred individually to each well of the plate using fine forceps. Worm viability was assessed using 2 parameters: • The measurement of mean worm motility scores on a scale of 0 (immotile) to 10 (maximum) every 24 h, terminating at 120 h, using an Olympus inverted microscope. • The biochemical evaluation of worm viability using MTT/formazan colorimetry. The MTT assay was carried out after the last motility reading (120 h). Single intact worms were placed in each well of a 48-well plate (Falcon, UK) containing 0.5 ml of a solution consisting of 0.5 mg/ml MTT (Sigma UK) in phosphate buffered saline, and then incubated for 30 min at 37° C. The worms were removed, blotted carefully, and individually transferred to separate wells of a 96-well microtiter plate, each containing 200 μl of DMSO to solubilize the formazan. After 1 h the plate was gently agitated to disperse the color evenly and the absorbance value (optical density) of the resulting formazan solution was determined at 490 nm using a multi-well scanning spectrophotometer (Elisa-reader, Dynatech, UK). Inhibition of formazan formation was correlated with worm damage or death.
Primary screen. New compounds were usually tested at 1.25×10^−5 M. Also expressed in μg/ml.
Secondary screen. […] Serial 1 in 4 drug dilutions was carried out to find activity endpoint and EC50 values for motility reduction and inhibition of formazan formation were produced. EC50 values were determined using Excel or Origin V7 scientific graphing and data analysis software.

Molecule	IC50 [nM]
CN(C)Cc1sc(Nc2cc(C(F)(F)F)ccn2)nc1-c1ccccn1 [Example 195, 5-((dimethylamino)methyl)-4-(pyridin-2-yl) N-(4-(trifluoromethyl)pyridin-2-yl)thiazol-2-amine]	200 to 500
C[C@@H]1CN(Cc2sc(Nc3cc(C(F)(F)F)ccn3)nc2-c2ccccn2)C[C@H](C)N1 [Example 196, 5-(((3R,5S)-3,5-dimethyl-piperazin-1-yl)methyl)-4-(pyridin-2-yl)-N-(4-(trifluoromethyl)pyridin-2-yl)thiazol-2-amine]	< 200
FC(F)(F)c1ccnc(Nc2nc(-c3ccccn3)c(CN3CCCC3)s2)c1 [Example 197, 4-(pyridin-2-yl)-5-(pyrrolidin-1-ylmethyl)-N-(4-(trifluoromethyl)pyridin-2-yl)thiazol-2-amine]	500 to 5000
Cc1sc(Nc2cc(C(=O)NCC(F)(F)F)ccn2)nc1-c1ccccn1 [Example 198, 2-(5-methyl-4-(pyridin-2-yl)thiazol-2-ylamino)-N-(2,2,2-trifluoroethyl) isonicotinamide]	< 200
O=C(c1sc(Nc2cc(C(F)(F)F)ccn2)nc1-c1ccccn1)N1CCOCC1 [Example 199, morpholino(4-(pyridin-2-yl)-2-(4-(trifluoromethyl)pyridin-2-ylamino)thiazol-5-yl)methanone]	500 to 5000
O=C(c1sc(Nc2cc(C(F)(F)F)ccn2)nc1-c1ccccn1)N1CCCCC1 [Example 200, piperidin-1-yl(4-(pyridin-2-yl)-2-(4-(trifluoromethyl)pyridin-2-ylamino)thiazol-5-yl)methanone]	500 to 5000
C[C@@H]1CN(Cc2sc(Nc3cc(C(F)(F)F)ccn3)nc2-c2ccccn2)C[C@H](C)O1 [Example 201, 5-(((2R,6S)-2,6-dimethyl-morpholino)methyl)-4-(pyridin-2-yl)-N-(4-(trifluoromethyl)pyridin-2-yl)thiazol-2-amine]	< 200
O=C(NCC1CCOCC1)c1sc(Nc2cc(C(F)(F)F)ccn2)nc1-c1ccccn1 [Example 203, 4-(pyridin-2-yl)-N-((tetrahydro-2H-pyran-4-yl)methyl)-2-(4-(trifluoromethyl)pyridin-2-ylamino) thiazole-5-carboxamide]	500 to 5000
O=C(NC1CCCC1)c1sc(Nc2cc(C(F)(F)F)ccn2)nc1-c1ccccn1 [Example 204, N-cyclopentyl-4-(pyridin-2-yl)-2-(4-(trifluoromethyl)pyridin-2-ylamino) thiazole-5-carboxamide]	500 to 5000
Cc1sc(Nc2cc(OC3CCOCC3)ccn2)nc1-c1ccccn1 [Example 205, 5-methyl-4-(pyridin-2-yl)-N-(4-(tetrahydro-2H-pyran-4-yloxy)pyridin-2-yl)thiazol-2-amine]	< 200
O=C(O)c1sc(Nc2cc(C(F)(F)F)ccn2)nc1-c1ccccn1 [Example 206, 4-(pyridin-2-yl)-2-(4-(trifluoromethyl)pyridin-2-ylamino) thiazole-5-carboxylic acid]	< 200
O=C(c1sc(Nc2cc(C(F)(F)F)ccn2)nc1-c1ccccn1)N1CCCC1 [Example 207, (4-(pyridin-2-yl)-2-(4-(trifluoromethyl)pyridin-2-ylamino)thiazol-5-yl)(pyrrolidin-1-yl)methanone]	< 200
CN(C)CCNC(=O)c1sc(Nc2cc(C(F)(F)F)ccn2)nc1-c1ccccn1 [Example 208, N-(2-(dimethylamino)ethyl)-4-(pyridin-2-yl)-2-(4-(trifluoro-methyl)pyridin-2-ylamino) thiazole-5-carboxamide]	< 200
CN(C)C(=O)c1sc(Nc2cc(C(F)(F)F)ccn2)nc1-c1ccccn1 [Example 209, N,N-dimethyl-4-(pyridin-2-yl)-2-(4-(trifluoromethyl)pyridin-2-ylamino) thiazole-5-carboxamide]	< 200
FC(F)(F)c1ccnc(Nc2nc(-c3ccccn3)c(CN3CCOCC3)s2)c1 [Example 210, 5-(morpholino-methyl)-4-(pyridin-2-yl)-N-(4-(trifluoromethyl)pyridin-2-yl) thiazol-2-amine]	< 200
O=C(NCC(F)(F)F)c1ccnc(Nc2nc(-c3ccccn3)c(CO)s2)c1 [Example 211, 2-(5-(hydroxy-methyl)-4-(pyridin-2-yl)thiazol-2-ylamino)-N-(2,2,2-trifluoroethyl) isonicotinamide]	200 to 500
CC(=O)N(C)c1cc(C(F)(F)F)cnc1Nc1nc(-c2ccccn2)cs1 [Example 212, N-methyl-N-(2-(4-(pyridin-2-yl)thiazol-2-ylamino)-5-(trifluoro-methyl)pyridin-3-yl) acetamide]	< 200
c1ccc(-c2csc(Nc3ncccn3)n2)nc1 [Example 213, 4-(pyridin-2-yl)-N-(pyrimidin-2-yl)thiazol-2-amine]	500 to 5000
c1ccc(Nc2nc(-c3ccccn3)cs2)nc1 [Example 214, N,4-di(pyridin-2-yl)thiazol-2-amine]	200 to 500
Cc1cccnc1Nc1nc(-c2ccccn2)cs1 [Example 215, N-(3-methylpyridin-2-yl)-4-(pyridin-2-yl)thiazol-2-amine]	< 200
FC(F)(F)c1ccc(Nc2nc(-c3ccccn3)cs2)nc1 [Example 217, 4-(pyridin-2-yl)-N-(5-(trifluoromethyl)pyridin-2-yl)thiazol-2-amine]	500 to 5000

Molecule	IC50 [nM]
COc1ccc(Nc2nc(-c3ccccn3)cs2)nc1 [Example 218, N-(5-methoxypyridin-2-yl)-4-(pyridin-2-yl)thiazol-2-amine]	200 to 500
CC(C)c1ccc(Nc2nc(-c3ccccn3)cs2)nc1 [Example 219, N-(5-isopropylpyridin-2-yl)-4-(pyridin-2-yl)thiazol-2-amine]	< 200
Cc1ccnc(Nc2nc(-c3cc(C)ccn3)cs2)c1 [Example 220, N,4-bis(4-methylpyridin-2-yl)thiazol-2-amine]	< 200
c1ccc(-c2ccc(Nc3nc(-c4ccccn4)cs3)nc2)cc1 [Example 221, N-(5-phenylpyridin-2-yl)-4-(pyridin-2-yl)thiazol-2-amine]	< 200
Cc1ccnc(-c2csc(Nc3ncccc3C)n2)c1 [Example 222, N-(3-methylpyridin-2-yl)-4-(4-methylpyridin-2-yl)thiazol-2-amine]	500 to 5000
Cc1ccnc(Nc2nc(-c3cc(Cl)ccn3)cs2)c1 [Example 223, 4-(4-chloropyridin-2-yl)-N-(4-methylpyridin-2-yl)thiazol-2-amine]	< 200
CCOc1ccnc(-c2csc(Nc3cc(C)ccn3)n2)c1 [Example 224, 4-(4-ethoxypyridin-2-yl)-N-(4-methylpyridin-2-yl)thiazol-2-amine]	200 to 500
COc1ccc(-c2csc(Nc3cc(C)ccn3)n2)nc1 [Example 225, 4-(5-methoxypyridin-2-yl)-N-(4-methylpyridin-2-yl)thiazol-2-amine]	< 200
Cc1sc(Nc2ccccn2)nc1-c1ccccn1 [Example 227, 5-methyl-N,4-di(pyridin-2-yl)thiazol-2-amine]	< 200
COc1ccc(-c2cnc(Nc3cc(OC(C)C)ccn3)o2)nc1 [Example 228, N-(4-isopropoxy-pyridin-2-yl)-5-(5-methoxypyridin-2-yl)oxazol-2-amine]	500 to 5000
c1ccc(-c2ccnc(Nc3ncc(-c4ccccn4)o3)c2)cc1 [Example 229, N-(4-phenylpyridin-2-yl)-5-(pyridin-2-yl)oxazol-2-amine]	500 to 5000
Cc1ccnc(Nc2ncc(-c3ncccc3C)o2)c1 [Example 230, 5-(3-methylpyridin-2-yl)-N-(4-methylpyridin-2-yl)oxazol-2-amine]	500 to 5000
CC(C)Oc1ccc(-c2cnc(Nc3ncccc3N(C)C)o2)nc1 [Example 231, N2-(5-(5-isopropoxy-pyridin-2-yl)oxazol-2-yl)-N3,N3-dimethyl-pyridine-2,3-diamine]	500 to 5000
c1ccc(Nc2nc(-c3ccccn3)co2)nc1 [Example 232, N,4-di (pyridin-2-yl)oxazol-2-amine]	< 200
COc1ccc(-c2cc(Nc3cc(OC(C)C)ccn3)n(C)n2)nc1 [Example 233, 4-isopropoxy-N-(3-(5-methoxypyridin-2-yl)-1-methyl-1H-pyrazol-5-yl)pyridin-2-amine]	500 to 5000
Cc1cccnc1Nc1cc(-c2ccc(OC3CCOCC3)cn2)nn1-c1ccccc1 [Example 234, 3-methyl-N-(1-phenyl-3-(5-(tetrahydro-2H-pyran-4-yloxy)pyridin-2-yl)-1H-pyrazol-5-yl)pyridin-2-amine]	500 to 5000
Cc1ccnc(Nc2cc(-c3ncccc3C)nn2-c2ccccc2)c1 [Example 235, 4-methyl-N-(3-(3-methylpyridin-2-yl)-1-phenyl-1H-pyrazol-5-yl)pyridin-2-amine]	500 to 5000
COc1ccc(-c2cc(Nc3cc(OC(C)C)ccn3)[nH]n2)nc1 [Example 236, 4-isopropoxy-N-(3-(5-methoxypyridin-2-yl)-1H-pyrazol-5-yl)pyridin-2-amine]	500 to 5000
Cc1cccnc1Nc1cc(-c2ccc(OC3CCOCC3)cn2)n[nH]1 [Example 237, 3-methyl-N-(3-(5-(tetrahydro-2H-pyran-4-yloxy)pyridin-2-yl)-1H-pyrazol-5-yl)pyridin-2-amine]	500 to 5000
c1ccc(-c2ccnc(Nc3cc(-c4ccccn4)n[nH]3)c2)cc1 [Example 238, 4-phenyl-N-(3-(pyridin-2-yl)-1H-pyrazol-5-yl)pyridin-2-amine]	< 200

Same assay, conditions: read-out: O. gutt Act class; O. gutturosa adult male worms in vitro

Molecule	IC50 [nM]
N- (cyclohexyl- methyl)- 4-(pyridin- 2-yl)-2-(4- (trifluoromethyl) pyridin-2- ylamino) thiazole-5- carboxamide [Example 202]	500 to 5000
